Source: publication PMC8026479 (Cancer Chemotherapy and Pharmacology, 2021)
Where two headings read alike, the source gives them in different places.

Legend:
[1] = Study G1T28-1-01 plasma PK, first-in-human single dose; assay type: in vivo; settings: for Vd: read-out: Vz
[2] = tested on: chemotherapy-induced myelosuppression in ES-SCLC patients; experiment: Study G1T28-03 Part 1 DLTs and myelosuppression endpoints (with topotecan); assay type: in vivo, human
Description: G1T28-03 (NCT02514447) was a multicentre Phase Ib/IIa study in patients with previously treated ES-SCLC [14]. Patients were aged ≥ 18 years and had histologically or cytologically confirmed ES-SCLC that had progressed during or after prior first- or second-line chemotherapy, measurable disease per RECIST version 1.1, an ECOG performance status of 0–2, and adequate organ function. Part 1 was a Phase Ib, open-label, dose-finding portion. Part 2 was a Phase IIa, randomized, double-blind, placebo-controlled portion. […] In Part 1 of the study, blood samples for PK analysis were collected at prespecified time points on Cycle 1 Day 1 and Cycle 1 Day 4 for all patients.

[3] = tested on: total bone marrow cycling cells; parameters: method as in doi:10.1200/jco.2015.33.15_suppl.2529; settings: dogs; cited from earlier work
[4] = human, in vivo; cited from earlier work
[5] = both sexes, human, plasma, iv, 6 mg/m2, healthy volunteers, single 30-min IV 6 mg/m2 (n = 3), mean
[6] = both sexes, human, plasma, iv, 12 mg/m2, healthy volunteers, single 30-min IV 12 mg/m2 (n = 3), mean
[7] = both sexes, human, plasma, iv, 24 mg/m2, healthy volunteers, single 30-min IV 24 mg/m2 (n = 3), mean
[8] = both sexes, human, plasma, iv, 49 mg/m2, healthy volunteers, single 30-min IV 49 mg/m2 (n = 3), mean
[9] = both sexes, human, plasma, iv, 96 mg/m2, healthy volunteers, single 30-min IV 96 mg/m2 (n = 6), mean
[10] = both sexes, human, plasma, healthy volunteers, single 30-min IV 6 mg/m2 (n = 3), mean
[11] = both sexes, human, plasma, healthy volunteers, single 30-min IV 96 mg/m2 (n = 6), mean
[12] = both, human, plasma, intravenous, […]2, healthy volunteers, BED cohort […]2 (n = 12), mean
[13] = both, human, plasma, intravenous, […]2, healthy volunteers, both […]2 cohorts (n = 18), mean
[14] = both, human, plasma, iv, […]2, healthy volunteers, single 30-min IV […]2 SAD cohort (n = 6), mean
[15] = healthy volunteers, single 30-min IV 6 mg/m2 (n = 3), mean
[16] = healthy volunteers, single 30-min IV 96 mg/m2 (n = 6), mean
[17] = G1T28-03 Part 1, 200 mg/m2 + topotecan 0.75 mg/m2 (n = 4)
[18] = G1T28-03 Part 1, 200 mg/m2 + topotecan 1.25 mg/m2 (n = 3)
[19] = G1T28-03 Part 1, 200 mg/m2 + topotecan […]2 (n = 2)
[20] = G1T28-03 Part 1, 240 mg/m2 + topotecan 0.75 mg/m2 (n = 8)
[21] = G1T28-03 Part 1, 240 mg/m2 + topotecan 1.00 mg/m2 (n = 8)
[22] = G1T28-03 Part 1, 280 mg/m2 + topotecan 0.75 mg/m2 (n = 7)
[23] = G1T28-03 Part 1, total (n = 32)

CN1CCN(c2ccc(Nc3ncc4cc5n(c4n3)C3(CCCCC3)CNC5=O)nc2)CC1 [trilaciclib]
clearance [1, 5]: 3130 mL/min | Vd [1, 5]: 1460 L | clearance [1, 6]: 2700 mL/min | Vd [1, 6]: 1770 L | clearance [1, 7]: 2930 mL/min | Vd [1, 7]: 2310 L | clearance [1, 8]: 2930 mL/min | Vd [1, 8]: 3430 L | clearance [1, 9]: 2370 mL/min | Vd [1, 9]: 3050 L | Tmax [1, 10]: 0.25 h | half-life [1, 10]: 5.32 h | half-life ([1]; both sexes, human, plasma, healthy volunteers, single 30-min IV 12 mg/m2 (n = 3), mean): 7.62 h | AUC(0-inf) ([1]; both sexes, human, plasma, healthy volunteers, single 30-min IV 12 mg/m2 (n = 3), mean, read-out: AUC0-inf): 143 ng·h/mL | half-life ([1]; both sexes, human, plasma, healthy volunteers, single 30-min IV 24 mg/m2 (n = 3), mean): 9.28 h | AUC(0-inf) ([1]; both sexes, human, plasma, healthy volunteers, single 30-min IV 24 mg/m2 (n = 3), mean, read-out: AUC0-inf): 279 ng·h/mL | Cmax ([1]; both sexes, human, plasma, healthy volunteers, single 30-min IV 24 mg/m2 (n = 3), mean, read-out: Cmax): 255 ng/mL | half-life ([1]; both sexes, human, plasma, healthy volunteers, single 30-min IV 49 mg/m2 (n = 3), mean): 12.9 h | Tmax [1, 11]: 0.37 h | half-life [1, 11]: 14.7 h | Tmax ([1]; both, human, plasma, intravenous, […]2): 0.47 h | clearance [1, 12]: 2100 mL/min | Vd [1, 12]: 2640 L | clearance [1, 13]: 2050 mL/min | Vd [1, 13]: 2580 L | half-life ([1]; both, human, plasma, iv, […]2): 14.5 h | clearance [1, 14]: 1950 mL/min | Vd [1, 14]: 2460 L | AUC(0-inf) [1, 15]: 66.6 ng·h/mL | Cmax [1, 15]: 50.4 ng/mL | Cmax ([1]; healthy volunteers, single 30-min IV 12 mg/m2 (n = 3), mean): 119 ng/mL | AUC(0-inf) ([1]; healthy volunteers, single 30-min IV 49 mg/m2 (n = 3), mean): 518 ng·h/mL | AUC(0-inf) [1, 16]: 1341 ng·h/mL | Cmax [1, 16]: 910 ng/mL | patients reporting DLTs ([2]; G1T28-03 Part 1, 200 mg/m2 + topotecan 0.75 mg/m2): 2 of 4 | DSN in Cycle 1, mean (SD) [2, 17]: 0 (0.0) days | MAHE, event rate [2, 17]: 0.102 per week | Mean ANC Nadir in Cycle 1 [2, 17]: 0.98 (0.330) ×109/L | Occurrence of ESA administrations [2, 17]: 0 n (%) | Occurrence of FN [2, 17]: 0 n (%) | Occurrence of G-CSF administration [2, 17]: 1 (25.0) n (%) | Occurrence of Grade 3 or 4 decreased hemoglobin laboratory values [2, 17]: 2 (50.0) n (%) | Occurrence of Grade 3 or 4 decreased platelet count values [2, 17]: 2 (50.0) n (%) | Occurrence of Grade 3 or 4 hematologic laboratory abnormalities [2, 17]: 4 (100.0) n (%) | Occurrence of IV antibiotic use [2, 17]: 1 (25.0) n (%) | Occurrence of RBC transfusions on/after Week 5 [2, 17]: 2 (50.0) n (%) | Occurrence of SN [2, 17]: 1 (25.0) n (%) | Occurrence of infection SAEs [2, 17]: 1 (25.0) n (%) | Occurrence of platelet transfusions [2, 17]: 0 n (%) | Occurrence of pulmonary infection SAEs [2, 17]: 1 (25.0) n (%) | DSN in Cycle 1, mean (SD) [2, 18]: 8 (6.8) days | MAHE, event rate [2, 18]: 0.156 per week | Mean ANC Nadir in Cycle 1 [2, 18]: 0.47 (0.551) ×109/L | Occurrence of ESA administrations [2, 18]: 1 (33.3) n (%) | Occurrence of FN [2, 18]: 0 n (%) | Occurrence of G-CSF administration [2, 18]: 2 (66.7) n (%) | Occurrence of Grade 3 or 4 decreased hemoglobin laboratory values [2, 18]: 1 (33.3) n (%) | Occurrence of Grade 3 or 4 decreased platelet count values [2, 18]: 1 (33.3) n (%) | Occurrence of Grade 3 or 4 hematologic laboratory abnormalities [2, 18]: 3 (100.0) n (%) | Occurrence of IV antibiotic use [2, 18]: 1 (33.3) n (%) | Occurrence of RBC transfusions on/after Week 5 [2, 18]: 1 (33.3) n (%) | Occurrence of SN [2, 18]: 2 (66.7) n (%) | Occurrence of infection SAEs [2, 18]: 1 (33.3) n (%) | Occurrence of platelet transfusions [2, 18]: 1 (33.3) n (%) | Occurrence of pulmonary infection SAEs [2, 18]: 1 (33.3) n (%) | DSN in Cycle 1, mean (SD) [2, 19]: 14 (1.4) days | MAHE, event rate [2, 19]: 0.403 per week | Mean ANC Nadir in Cycle 1 [2, 19]: 0.20 (0.000) ×109/L | Occurrence of ESA administrations [2, 19]: 2 (100) n (%) | Occurrence of FN [2, 19]: 0 n (%) | Occurrence of G-CSF administration [2, 19]: 2 (100) n (%) | Occurrence of Grade 3 or 4 decreased hemoglobin laboratory values [2, 19]: 2 (100) n (%) | Occurrence of Grade 3 or 4 decreased platelet count values [2, 19]: 2 (100) n (%) | Occurrence of Grade 3 or 4 hematologic laboratory abnormalities [2, 19]: 2 (100.0) n (%) | Occurrence of IV antibiotic use [2, 19]: 2 (100) n (%) | Occurrence of RBC transfusions on/after Week 5 [2, 19]: 2 (100) n (%) | Occurrence of SN [2, 19]: 2 (100) n (%) | Occurrence of infection SAEs [2, 19]: 2 (100) n (%) | Occurrence of platelet transfusions [2, 19]: 0 n (%) | Occurrence of pulmonary infection SAEs [2, 19]: 1 (50.0) n (%) | DSN in Cycle 1, mean (SD) [2, 20]: 0 (0.0) days | MAHE, event rate [2, 20]: 0.037 per week | Mean ANC Nadir in Cycle 1 [2, 20]: 1.31 (0.650) ×109/L | Occurrence of ESA administrations [2, 20]: 1 (12.5) n (%) | Occurrence of FN [2, 20]: 0 n (%) | Occurrence of G-CSF administration [2, 20]: 4 (50.0) n (%) | Occurrence of Grade 3 or 4 decreased hemoglobin laboratory values [2, 20]: 3 (37.5) n (%) | Occurrence of Grade 3 or 4 decreased platelet count values [2, 20]: 0 n (%) | Occurrence of Grade 3 or 4 hematologic laboratory abnormalities [2, 20]: 7 (87.5) n (%) | Occurrence of IV antibiotic use [2, 20]: 1 (12.5) n (%) | Occurrence of RBC transfusions on/after Week 5 [2, 20]: 1 (12.5) n (%) | Occurrence of SN [2, 20]: 0 n (%) | Occurrence of infection SAEs [2, 20]: 0 n (%) | Occurrence of platelet transfusions [2, 20]: 0 n (%) | Occurrence of pulmonary infection SAEs [2, 20]: 0 n (%) | DSN in Cycle 1, mean (SD) [2, 21]: 3 (5.5) days | MAHE, event rate [2, 21]: 0.073 per week | Mean ANC Nadir in Cycle 1 [2, 21]: 0.63 (0.341) ×109/L | Occurrence of ESA administrations [2, 21]: 1 (12.5) n (%) | Occurrence of FN [2, 21]: 0 n (%) | Occurrence of G-CSF administration [2, 21]: 3 (37.5) n (%) | Occurrence of Grade 3 or 4 decreased hemoglobin laboratory values [2, 21]: 3 (37.5) n (%) | Occurrence of Grade 3 or 4 decreased platelet count values [2, 21]: 1 (12.5) n (%) | Occurrence of Grade 3 or 4 hematologic laboratory abnormalities [2, 21]: 7 (87.5) n (%) | Occurrence of IV antibiotic use [2, 21]: 1 (12.5) n (%) | Occurrence of RBC transfusions on/after Week 5 [2, 21]: 2 (25.0) n (%) | Occurrence of SN [2, 21]: 3 (37.5) n (%) | Occurrence of infection SAEs [2, 21]: 1 (12.5) n (%) | Occurrence of platelet transfusions [2, 21]: 0 n (%) | Occurrence of pulmonary infection SAEs [2, 21]: 1 (12.5) n (%) | patients reporting DLTs ([2]; G1T28-03 Part 1, 280 mg/m2 + topotecan 0.75 mg/m2): 2 of 7 | DSN in Cycle 1, mean (SD) [2, 22]: 2 (3.6) days | MAHE, event rate [2, 22]: 0.085 per week | Mean ANC Nadir in Cycle 1 [2, 22]: 0.86 (0.594) ×109/L | Occurrence of ESA administrations [2, 22]: 0 n (%) | Occurrence of FN [2, 22]: 1 (14.3) n (%) | Occurrence of G-CSF administration [2, 22]: 2 (28.6) n (%) | Occurrence of Grade 3 or 4 decreased hemoglobin laboratory values [2, 22]: 1 (14.3) n (%) | Occurrence of Grade 3 or 4 decreased platelet count values [2, 22]: 2 (28.6) n (%) | Occurrence of Grade 3 or 4 hematologic laboratory abnormalities [2, 22]: 7 (100.0) n (%) | Occurrence of IV antibiotic use [2, 22]: 2 (28.6) n (%) | Occurrence of RBC transfusions on/after Week 5 [2, 22]: 1 (14.3) n (%) | Occurrence of SN [2, 22]: 2 (28.6) n (%) | Occurrence of infection SAEs [2, 22]: 0 n (%) | Occurrence of platelet transfusions [2, 22]: 1 (14.3) n (%) | Occurrence of pulmonary infection SAEs [2, 22]: 0 n (%) | DSN in Cycle 1, mean (SD) [2, 23]: 3 (5.1) days | MAHE, event rate [2, 23]: 0.107 per week | Occurrence of ESA administrations [2, 23]: 5 (15.6) n (%) | Occurrence of FN [2, 23]: 1 (3.1) n (%) | Occurrence of G-CSF administration [2, 23]: 14 (43.8) n (%) | Occurrence of Grade 3 or 4 decreased hemoglobin laboratory values [2, 23]: 12 (37.5) n (%) | Occurrence of Grade 3 or 4 decreased platelet count values [2, 23]: 8 (25.0) n (%) | Occurrence of Grade 3 or 4 hematologic laboratory abnormalities [2, 23]: 30 (93.8) n (%) | Occurrence of IV antibiotic use [2, 23]: 8 (25.0) n (%) | Occurrence of RBC transfusions on/after Week 5 [2, 23]: 9 (28.1) n (%) | Occurrence of SN [2, 23]: 10 (31.3) n (%) | Occurrence of infection SAEs [2, 23]: 5 (15.6) n (%) | Occurrence of platelet transfusions [2, 23]: 2 (6.3) n (%) | Occurrence of pulmonary infection SAEs [2, 23]: 4 (12.5) n (%) | maximum decrease from baseline in total bone marrow cycling cells [3]: ~ 50% | most commonly reported AEs [4]: headache and nausea | severe AEs [4]: No severe AEs were reported | time to spontaneous resolution of all moderate AEs [4]: ≤ 24 h
